# Laboratory results as given in PMC9448382, “Fluorosulfate-containing pyrazole heterocycles as selective BuChE inhibitors: structure-activity relationship and biological evaluation for the treatment of Alzheimer’s disease” (Journal of Enzyme Inhibition and Medicinal Chemistry, 2022).
# “Also recorded” adds a separate entry of the source.
# How the values were obtained:
# hBuChE from human serum = biological target: T1, hBuChE from human serum (Homo sapiens, UniProt P06276); assay: hBuChE inhibition assay; type: biochemical; settings: mean ± SEM
# T1 construct: purchased Sigma B4186; host or cells: human serum (per result head)
# T1 sequence (P06276 29-602): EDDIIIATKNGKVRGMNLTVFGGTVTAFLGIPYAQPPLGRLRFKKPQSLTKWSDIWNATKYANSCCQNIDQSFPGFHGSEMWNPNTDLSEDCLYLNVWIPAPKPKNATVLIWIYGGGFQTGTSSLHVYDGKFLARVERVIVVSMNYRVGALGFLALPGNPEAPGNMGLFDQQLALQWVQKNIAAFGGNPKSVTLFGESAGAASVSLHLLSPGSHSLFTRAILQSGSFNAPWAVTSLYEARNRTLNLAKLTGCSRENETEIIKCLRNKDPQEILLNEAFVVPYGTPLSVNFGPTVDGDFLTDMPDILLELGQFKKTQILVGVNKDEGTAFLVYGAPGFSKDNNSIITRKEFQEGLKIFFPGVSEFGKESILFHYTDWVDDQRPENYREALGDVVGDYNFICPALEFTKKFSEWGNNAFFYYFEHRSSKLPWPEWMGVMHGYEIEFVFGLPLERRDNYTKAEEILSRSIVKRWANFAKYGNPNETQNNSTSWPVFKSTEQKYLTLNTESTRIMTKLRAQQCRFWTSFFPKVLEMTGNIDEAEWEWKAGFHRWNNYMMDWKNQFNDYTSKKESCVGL
# Experimental: With 0.1 M pH 8 PBS, a DTNB solution (5 μM) was produced. Dissolve the test compound in DMSO to prepare a concentration of 2 × 10^−1 M stock solution. The solution was diluted in ethanol to five concentrations of 200, 100, 10, 1 and 0.1 μM, respectively. Measurement was carried out with 96-well plates, add 40 μL buffer, 10 μL test compound at a series of concentrations, and 10 μL AChE/BuChE in sequence. The mixture was then incubated at 37 °C for 10 min. Then add 20 μL DTNB, incubation at 37 °C for 10 min. […] For the blank value, 10 μL of ethanol was used instead of the inhibitor solution. The percentage of enzyme activity and the logarithm of compound concentration were used to express the inhibitory activity of compounds. IC50 was calculated by SPSS17.0.
# PC12 cells = assay: Neuroprotection assay against H2O2-induced PC12 cell injury; type: cell-based; settings: Rattus norvegicus
# Experimental: PC12 cells were distributed at a density of 1 × 10^4 cells per well into 96-well microtiter plates. At time zero, cells were treated with a range of compounds K3 concentrations (1‒25 µM) and kept for 3 h after being incubated overnight. The media were then changed with new media containing the medication as well as a cytotoxic stimulus in the form of 100 µM H2O2, which was left for another 24 h. The MTT assay was used to determine cell viability after 24 h. In the cells, 20 µL of 0.5 mg/mL MTT reagent was applied and incubated for 4 h. The cell culture was removed after 4 h, and 150 µL DMSO was added to dissolve the formazan. The optical density was measured at 492 nm (OD492) on the Biotek Synergy HTX Multi-Mode reader. Results were adjusted considering OD measured in the blank.
# eqBuChE = biological target: T2, eqBuChE (Equus caballus, UniProt P81908); assay: Kinetic study of eqBuChE inhibition; type: biochemical, horse
# T2 construct: BuChE from horse serum (C4290-1KU; Sigma); purchased Sigma C4290-1KU; host or cells: horse serum
# T2 sequence (P81908 whole entry): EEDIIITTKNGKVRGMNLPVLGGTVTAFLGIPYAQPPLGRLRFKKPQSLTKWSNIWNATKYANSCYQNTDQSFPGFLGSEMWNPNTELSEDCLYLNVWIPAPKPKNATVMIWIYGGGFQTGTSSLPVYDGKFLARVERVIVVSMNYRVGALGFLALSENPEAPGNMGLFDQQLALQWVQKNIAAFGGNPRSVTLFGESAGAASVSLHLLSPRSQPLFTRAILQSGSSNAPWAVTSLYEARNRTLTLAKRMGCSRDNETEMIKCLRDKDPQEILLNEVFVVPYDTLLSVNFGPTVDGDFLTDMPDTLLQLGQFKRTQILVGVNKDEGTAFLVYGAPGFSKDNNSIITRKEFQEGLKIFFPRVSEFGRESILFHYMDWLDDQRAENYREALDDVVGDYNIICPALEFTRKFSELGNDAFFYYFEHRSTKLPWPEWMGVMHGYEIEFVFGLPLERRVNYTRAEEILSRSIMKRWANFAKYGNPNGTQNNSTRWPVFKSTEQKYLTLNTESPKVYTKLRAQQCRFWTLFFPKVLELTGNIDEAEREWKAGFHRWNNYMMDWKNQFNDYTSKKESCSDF
# Experimental: The same test settings were used for kinetic studies, with six concentrations of substrate (0.1‒1 mM) and four concentrations of inhibitor (0‒1.6 µM). The effect of different doses of compound K3 on BuChE catalytic activity at 37 °C was also investigated. The final concentration of enzyme was changed (0‒0.18 U/mL) under the same test conditions as indicated in the assay methodology. For the assessment of reversible and irreversible inhibitor binding at enzyme, different concentrations of compound K3 (0, 0.4, 0.8, and 1.6 µM) were utilised.
# male ICR mice = settings: Day 3 to Day 14
# Source text: The National Institutes of Health Guide for the Care and Use of Laboratory Animals was followed for all experiments. The Animal Care and Use Committee of Anhui Medical University adopted the Measures for the Care and Treatment of Laboratory Animals. In Anhui Medical University's animal centre, male ICR mice were employed (Hefei). […] Throughout all of the experiments, the room's ambient temperature and relative humidity (50%) remained constant. […] 8‒10 animals were used in each study group. The experimental time was from 08: 00 to 14: 00, and the mice were sacrificed by cervical dislocation shortly after the experiment ended. […] Aβ1–42 aggregation was induced by dissolving the Aβ1–42 peptide in DMSO as a stock solution of 5 mM and incubating it in saline at a final concentration of 2 mg/mL for 24 h at 37 °C.
# AChE from electric eel = biological target: T3, AChE from electric eel (Electrophorus electricus, UniProt O42275); assay: EeAChE inhibition assay (Ellman's method); type: biochemical; settings: read-out: AChE % inhibition at 20 µM, 20 µM, na = no inhibitory activity at 20 µM
# T3 construct: AChE from electric eel (C3389-500UN; Sigma); purchased Sigma C3389-500UN
# T3 sequence (O42275 24-633): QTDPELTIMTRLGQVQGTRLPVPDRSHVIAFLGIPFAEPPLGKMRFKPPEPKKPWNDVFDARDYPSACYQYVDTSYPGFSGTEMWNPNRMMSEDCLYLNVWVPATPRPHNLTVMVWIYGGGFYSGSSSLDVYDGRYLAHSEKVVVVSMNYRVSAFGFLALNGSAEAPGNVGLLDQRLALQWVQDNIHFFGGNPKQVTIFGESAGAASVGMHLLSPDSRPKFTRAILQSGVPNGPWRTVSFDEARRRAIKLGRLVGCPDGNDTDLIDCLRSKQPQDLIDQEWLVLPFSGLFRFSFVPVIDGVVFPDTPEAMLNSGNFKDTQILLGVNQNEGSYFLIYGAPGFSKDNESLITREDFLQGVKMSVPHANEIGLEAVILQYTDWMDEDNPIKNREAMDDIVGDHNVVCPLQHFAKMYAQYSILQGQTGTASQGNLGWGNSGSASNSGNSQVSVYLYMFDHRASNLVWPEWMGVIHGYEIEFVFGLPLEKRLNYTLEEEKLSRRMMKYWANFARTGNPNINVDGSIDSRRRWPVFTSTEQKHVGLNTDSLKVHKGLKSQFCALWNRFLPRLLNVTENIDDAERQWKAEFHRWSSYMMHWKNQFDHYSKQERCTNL
# Experimental: According to Ellman's method, assays were carried out on AChE from electric eel (C3389-500UN; Sigma) and BuChE from horse serum (C4290-1KU; Sigma). On a final volume of 500 μL, the experiment was carried out in 48-well plates. EeAChE or eqBuChE, 0.036 U/mL, and 0.1 M pH 8 phosphate buffer were added to each well. At 37 °C, they were pre-incubated for 20 min at various chemical concentrations. […] Along with the enzymatic breakdown of ACh or BuCh, the DTNB creates the yellow anion 5-thio-2-nitrobenzoic acid. In a Biotek Synergy HTX Multi-Mode reader, changes in absorbance were detected at 410 nm. Inhibition curves were used to calculate the IC50 values (log inhibitor concentration vs percent of inhibition). The same conditions were used in a control experiment without the inhibitor, and the blank comprised buffer, DMSO, DTNB, and substrate.
# The IC50 values were calculated by SPSS 17.0.
# [1] = test system: human hepatoblastoma cells HepG2; assay: Cytotoxicity MTT assay, HepG2 cells; settings: 50 μM, 24 h
# Experimental: Human hepatoblastoma cells HepG2 and human normal liver cells LO2 cells were cultured at 37 °C in DMEM containing 10% foetal bovine serum, 100 U/mL penicillin, and […] streptomycin in a humidified incubator with 5% CO2. The methyl thiazolyl tetrazolium (MTT) assay was used to assess cell cytotoxicity. In a 96-well plate, HepG2 cells and LO2 cells were injected at 1 × 10^4 cells per well. The cells were treated with various substances that were diluted in DMEM for 24 h after being cultivated for 24 h. The cells were then treated for 4 h with 20 µL 0.5 mg/mL MTT reagent. The cell culture was withdrawn after 4 h, and 150 µL DMSO were added to dissolve the formazan. […] Three independent tests were used to calculate cell viability.
# Blank: cultured with fresh medium only.
smiles,measurement,setting,value
O=S(=O)(F)Oc1cc(-c2ccccc2)nn1-c1ccc(Cl)cc1 [Compound K3],IC50,hBuChE from human serum,6.59 ± 3.54 µM
same,viability at 5 µM,"PC12 cells; PC-12, 100 µM H2O2, compound 5 µM",55.9%
same,viability at 25 µM,"PC12 cells; PC-12, 100 µM H2O2, compound 25 µM",69.3%
same,reversibility of BuChE inhibition,"eqBuChE; K3 0, 0.4, 0.8, 1.6 μM, enzyme 0‒0.18 U/mL",reversible
same,type of BuChE inhibition,eqBuChE; Lineweaver-Burk plots,"mixed and non-competitive; also recorded: mixed, and non-competitive"
same,Ki,"eqBuChE; Lineweaver-Burk secondary plots, read-out: dissociation constant Ki",0.77 µM
same,effect on body weight during administration,male ICR mice; 10 mg/kg po,no effect on body weight increase
same,effect on Aβ1–42-induced cognitive dysfunction (MWM),"male ICR mice; Aβ1–42 10 µg icv, K3 10 mg/kg po, donepezil 15 mg/kg po",significantly improved
same,inhibition at 20 µM,AChE from electric eel,26.3 ± 1.4%
same,cell survival rate,[1],87.9%
